IC50 data for 47 molecules are collected here from patent US11591319B2, “Small molecule inducers of autophagy” (Board of Regents, The University of Texas System, priority 2018, dated 2023).

Some results are limits rather than exact numbers.

Beclin 1/Bcl-2 interaction, sequence (P10415 1-218): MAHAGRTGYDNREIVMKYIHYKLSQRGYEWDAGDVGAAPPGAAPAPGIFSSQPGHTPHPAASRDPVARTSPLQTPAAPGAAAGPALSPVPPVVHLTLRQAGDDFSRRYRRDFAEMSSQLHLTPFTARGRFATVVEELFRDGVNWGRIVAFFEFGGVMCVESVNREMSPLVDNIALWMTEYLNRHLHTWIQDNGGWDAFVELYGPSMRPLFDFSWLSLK

The target in the assay is Beclin 1/Bcl-2 interaction (Homo sapiens (Human), UniProt P10415). Nature of the assay: Beclin 1/Bcl-2 AlphaLISA assay (dose-response). The assay is classed as binding. The text has this:
We also developed a high-throughput Beclin 1/Bcl-2 AlphaLISA assay to directly measure the in vitro interaction between Beclin 1 and Bcl-2. AlphaLISA is a bead-based proximity assay that is capable of measuring protein-protein interaction in homogeneous solution.^41 Oxygen singlet molecules are generated by Alpha donor beads upon irradiation at 680 nm and travel to acceptor beads in proximity. […] Thus, a measurable Alpha luminescence signal requires chemical energy transfer between the donor and acceptor beads, and a pair of interacting molecules immobilized on the beads stabilizes bead association to produce measurable Alpha signals.
We used purified recombinant Beclin 1 and Bcl-2 proteins for AlphaLISA, which were optimized for enhanced solubility and expression. Human Beclin 1 was expressed as a fusion protein with StrepII-SUMO at the N-terminus, and three residues on the aromatic finger of Beclin 1 were mutated (F359D/F360D/W361D) to improve solubility and protein stability.^42 These mutations are in the BARA domain, which is far from the BH3 motif recognized by Bcl-2. A recombinant Bcl-2-binding deficient mutant of Beclin 1 (StrepII-SUMO-Beclin 1^ΔBcl-2BD) was used as a negative control. […] For a normalization control, we included a parallel AlphaLISA assay with purified SUMO protein (with an N-terminal StrepII tag and a C-terminal 6xHis tag). The purpose of a normalization control is to eliminate inner filter (false-positive) hits that reduce luminescence signal by interfering with the AlphaLISA assay in ways that are unrelated to the Beclin 1/Bcl-2 interaction. With the normalization control, the interaction of Beclin 1 and Bcl-2 was measured as follows:
All AlphaLISA assays were performed in triplicate in a 384-well format with BB buffer (phosphate-buffered saline supplemented with 0.5% BSA and 1 mM DTT). For the Beclin 1/Bcl-2 AlphaLISA, purified StrepII-SUMO-Beclin 1 was incubated with Bcl-2-6xHis proteins at 300 nM and 60 nM, respectively. For internal control AlphaLISA assays, StrepII-SUMO-6xHis protein (internal control) was used at 20 nM. […] Following the initial incubation, Strep-Tactin Alpha donor (AS106D) and anti-6xHis AlphaLISA acceptor beads (AL128M) were added to a final concentration of 40 μg/mL each and incubated at room temperature in the dark for an additional 1 h. All samples were evaluated in triplicate. Alpha signals were measured by an Envision plate reader (Perkin Elmer). Beclin 1/Bcl-2 Alpha signal was normalized with internal control Alpha signal. The normalized value represents the binding activity of Beclin 1 and Bcl-2. The percent activity of a compound was calculated as the following formula: […]
Protein or peptide concentrations used in dose-response AlphaLISA experiments were as follows: Beclin1/Bcl-2—300 nM/60 nM; SUMO (internal control for Beclin 1/Bcl-2 AlphaLISA)—20 nM; Beclin 1 BH3/Bcl-2—1000 nM/60 nM; Bax BH3/Bcl-2—100 nM/20 nM; Biotin-6xHis (internal control for BH3/Bcl-2 AlphaLISA)—10
Molecule `CC1=NN(C(=O)c2ccc(Br)cc2)C(c2ccccc2)C1` (centres unmarked) [Lqr-8-296] registered an IC50 greater than 10 µM.
The same measure for `CC(C)(C)OC(=O)Nc1ccc(C2=NN(C(=O)c3ccc4c(c3)OCO4)C(c3ccccc3)C2)cc1` (centres unmarked) [Lqr-9-065]: 6.77 µM; for `Cc1ccc(C(=O)N2N=C(c3ccc(NS(C)(=O)=O)cc3)CC2c2ccco2)cc1` (centres unmarked) [lqr-8-177]: 16.2 µM; for `CS(=O)(=O)Nc1ccc(C2=NN(C(=O)c3ccc(Cl)cc3)C(c3ccco3)C2)cc1` (centres unmarked) [lqr-8-180]: 2.77 µM.
The figure for `CS(=O)(=O)Nc1ccc(C2=NN(C(=O)c3ccc(F)cc3)C(c3ccco3)C2)cc1` (centres unmarked) [lqr-8-183] is 12.8 µM.
In the case of `COc1ccc(C(=O)N2N=C(c3ccc(NS(C)(=O)=O)cc3)CC2c2ccco2)cc1` (centres unmarked) [lqr-8-185], the IC50 is 9.89 µM.
The same measure for `CS(=O)(=O)Nc1ccc(C2=NN(C(=O)c3ccc(Br)cc3)C(c3ccco3)C2)cc1` (centres unmarked) [lqr-8-186]: 2.42 µM; for `CS(=O)(=O)Nc1ccc(C2=NN(C(=O)c3ccc([N+](=O)[O-])cc3)C(c3ccco3)C2)cc1` (centres unmarked) [lqr-8-188]: 1.68 µM; for `CS(=O)(=O)Nc1ccc(C2=NN(C(=O)c3ccc(C(F)(F)F)cc3)C(c3ccco3)C2)cc1` (centres unmarked) [lqr-8-189]: 2.79 µM.
For `CS(=O)(=O)Nc1ccc(C2=NN(C(=O)c3ccc(C#N)cc3)C(c3ccco3)C2)cc1` (centres unmarked) [lqr-8-190], inhibition was half-maximal at 7.23 µM (IC50).
The figure for `CS(=O)(=O)Nc1ccc(C2=NN(C(=O)c3ccc(I)cc3)C(c3ccco3)C2)cc1` (centres unmarked) [lqr-8-196] is 2.14 µM.
In turn, `Cc1ccc(C(=O)N2N=C(c3ccc(NC(=O)OC(C)(C)C)cc3)CC2c2ccco2)cc1` (centres unmarked) [lqr-8-203] yielded an IC50 of 2.88 µM.
The figure for `CCNc1ccc(C2=NN(C(=O)c3ccc(C)cc3)C(c3ccco3)C2)cc1` (centres unmarked) [lqr-8-219] is 29.8 µM.
The same measure for `CC(C)(C)OC(=O)Nc1ccc(C2=NN(C(=O)c3ccc(Br)cc3)C(c3ccco3)C2)cc1` (centres unmarked) [lqr-8-231]: 0.982 µM; for `CC(C)(C)OC(=O)Nc1ccc(C2=NN(C(=O)c3ccc([N+](=O)[O-])cc3)C(c3ccco3)C2)cc1` (centres unmarked) [lqr-8-233]: 1.24 µM; for `COC(=O)Nc1ccc(C2=NN(C(=O)c3ccc(C)cc3)C(c3ccco3)C2)cc1` (centres unmarked) [lqr-8-235]: 1.8 µM.
The same measure for `Cc1ccc(C(=O)N2N=C(c3ccc(NS(C)(=O)=O)cc3)CC2c2ccccc2)cc1` (centres unmarked) [lqr-8-238]: 0.905 µM.
`Cc1ccc(C(=O)N2N=C(c3ccc(NS(C)(=O)=O)cc3)CC2c2ccc(Br)cc2)cc1` (centres unmarked) [lqr-8-267] showed an IC50 of 13.9 µM.
The figure for `Cc1ccc(C(=O)N2N=C(c3ccc(NS(C)(=O)=O)cc3)CC2c2ccccc2Br)cc1` (centres unmarked) [lqr-8-269] is 9.83 µM.
The same measure for `Cc1ccc(C(=O)N2N=C(c3ccc(NS(C)(=O)=O)cc3)CC2c2ccc(C)cc2)cc1` (centres unmarked) [lqr-8-275]: 14.2 µM; for `CC(C)(C)OC(=O)Nc1ccc(C2=NN(C(=O)c3ccc(Br)cc3)C(c3ccccc3)C2)cc1` (centres unmarked) [lqr-8-278]: 0.274 µM.
The figure for `CC(C)(C)OC(=O)Nc1ccc(C2=NN(C(=O)c3ccc([N+](=O)[O-])cc3)C(c3ccccc3)C2)cc1` (centres unmarked) [lqr-8-279] is 0.349 µM.
As for `CC(C)(C)OC(=O)Nc1ccc(C2=NN(C(=O)c3ccc(Br)cc3)C(c3ccc(Br)o3)C2)cc1` (centres unmarked) [lqr-8-302], the IC50 worked out at 2.68 µM.
The figure for `O=C(c1ccc(Br)cc1)N1N=C(c2ccco2)CC1c1ccccc1` (centres unmarked) [lqr-8-309] is greater than 10 µM.
With `O=C(c1ccc(Br)cc1)N1N=C(c2ccc[nH]2)CC1c1ccccc1` (centres unmarked) [lqr-8-310], the IC50 is greater than 10 µM.
The same measure for `COC(=O)Nc1ccc(C2=NN(C(=O)c3ccc(Br)cc3)C(c3ccccc3)C2)cc1` (centres unmarked) [lqr-9-008]: 10 µM; for `CC(C)(C)OC(=O)Nc1ccc(-c2cc(-c3ccccc3)[nH]n2)cc1` [lqr-9-012]: greater than 10 µM; for `CC(C)(C)OC(=O)Nc1ccc(-c2cc(-c3ccccc3)n(C(=O)c3ccc(Br)cc3)n2)cc1` [lqr-9-013]: greater than 10 µM.
The same measure for `CC(C)(C)OC(=O)n1cccc1C1=NN(C(=O)c2ccc(Br)cc2)C(c2ccccc2)C1` (centres unmarked) [lqr-9-018]: greater than 10 µM; for `CCC1CC(c2ccc(NC(=O)OC(C)(C)C)cc2)=NN1C(=O)c1ccc(Br)cc1` (centres unmarked) [lqr-9-026]: 13 µM; for `CC(C)(C)OC(=O)Nc1ccc(C2=NN(C(=O)c3ccc(Br)cc3)C(c3ccccn3)C2)cc1` (centres unmarked) [lqr-9-033]: 0.455 µM.
The figure for `CC(C)(C)OC(=O)Nc1ccc(C2=NN(C(=O)c3ccc(Br)cc3)C(c3cccnc3)C2)cc1` (centres unmarked) [lqr-9-044] is 1.8 µM.
For the molecule `CC(C)(C)OC(=O)Nc1ccc(C2=NN(C(=O)c3ccc(Br)cc3)C(c3ccncc3)C2)cc1` (centres unmarked) [lqr-9-046], inhibition was half-maximal at 3 µM (IC50).
As for `CC(C)(C)OC(=O)Nc1ccc(C2=NN(C(=O)c3ccc(Br)cc3)C(c3ccoc3)C2)cc1` (centres unmarked) [lqr-9-048], the IC50 was found to be 4.1 µM.
The same measure for `CC(C)(C)OC(=O)Nc1cccc(C2=NN(C(=O)c3ccc(Br)cc3)C(c3ccccc3)C2)c1` (centres unmarked) [lqr-9-055]: 12 µM; for `CC(C)(C)OC(=O)Nc1ccc(C2=NN(C(=O)OC(C)(C)C)C(c3ccccc3)C2)cc1` (centres unmarked) [lqr-9-056]: greater than 10 µM; for `O=C=Nc1ccc(C2=NN(C(=O)c3ccc(Br)cc3)C(c3ccccc3)C2)cc1` (centres unmarked) [lqr-9-068]: greater than 10 µM.
The figure for `CC(C)NC(=O)Nc1ccc(C2=NN(C(=O)c3ccc(Br)cc3)C(c3ccccc3)C2)cc1` (centres unmarked) [lqr-9-076] is 0.349 µM; for `CC(C)NC(=O)Nc1ccc(C2=NN(C(=O)c3ccc(Br)cc3)C(c3ccccc3)C2)cc1` (centres unmarked) [lqr-9-085] it is 0.063 µM; for `O=C1OCCN1c1ccc(C2=NN(C(=O)c3ccc(Br)cc3)C(c3ccccc3)C2)cc1` (centres unmarked) [lqr-9-088] it is 5.14 µM.
`CC(C)(C)NC(=O)Nc1ccc(C2=NN(C(=O)c3ccc(Br)cc3)C(c3ccccc3)C2)cc1` (centres unmarked) [lqr-9-118] showed an IC50 of 9.1 µM.
The figure for `CNC(=O)Nc1ccc(C2=NN(C(=O)c3ccc(Br)cc3)C(c3ccccc3)C2)cc1` (centres unmarked) [lqr-9-121] is 5.52 µM; for `CC(C)COC(=O)Nc1ccc(C2=NN(C(=O)c3ccc(Br)cc3)C(c3ccccc3)C2)cc1` (centres unmarked) [lqr-9-155] it is 0.184 µM; for `C=CCOC(=O)Nc1ccc(C2=NN(C(=O)c3ccc(Br)cc3)C(c3ccccc3)C2)cc1` (centres unmarked) [lqr-9-156] it is less than 0.156 µM.
On to `CCOC(=O)Nc1ccc(C2=NN(C(=O)c3ccc(Br)cc3)C(c3ccccc3)C2)cc1` (centres unmarked) [lqr-9-157], for which the IC50 is less than 0.156 µM.
The figure for `CN(C)C(=O)Nc1ccc(C2=NN(C(=O)c3ccc(Br)cc3)C(c3ccccc3)C2)cc1` (centres unmarked) [lqr-9-158] is 2.39 µM; for `O=C(Nc1ccc(C2=NN(C(=O)c3ccc(Br)cc3)C(c3ccccc3)C2)cc1)OC1CC1` (centres unmarked) [lqr-9-161] it is less than 0.156 µM.
